Common to all, as to assay: NCI tumour cell line growth inhibition, 48 h
The test system of assay [1] is A549 NSCLC.
For assay [2], the system named is COLO 205 colon.
In assay [3] the test system is M14 melanoma.
Assay [4] relates to MDA-MB-231 breast.
The test system of assay [5] is OVCAR-8 ovarian.
For assay [6], the system named is SNB-19 CNS.
For assay [7], the system named is TK-10 renal.
Assay [8] has as its system U251 CNS.
Assay [9] concerns UACC-62 melanoma.
Assay [10] relates to MOLT-4 leukemia.

Where “and” joins values, the source holds several entries; their conditions need not be identical. Equal values may be shown once.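 Grown in 96-well plates, cells were treated for 48 hours with each compound at five concentrations. Insufficient inhibition: endpoint recorded as highest concentration tested. At the GI50, growth is halved. Definition used: TGI = concentration required for complete inhibition of growth.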

Consider `CO/C(=N\N=C\c1cccc(C(F)(F)F)c1)c1ccncc1`, for which the GI50 in assay [1] is 15.5 µM; in assay [4], 10.8 µM; in [5] it was 17.4 µM; in assay [6], 14.2 µM. For the same molecule, the TGI is over 100 µM in assay [1]; 39.6 µM in [2]; 94.4 µM in assay [3]; over 100 µM in [4]; over 100 µM in assay [5]; 54.6 µM in assay [6]. The TGI in [7] was over 100 µM; in assay [8] it was 80.2 µM; in [9], over 100 µM.
For the molecule `N#C[C@H]1Nc2ccccc2[C@@H](O)C1O` (stereo not given in full), the TGI in assay [1], in assay [2], in [3], in assay [4], in assay [10] and in assay [5] was over 100 µM throughout. The TGI in [7], in assay [8] and in assay [9] was over 100 µM in each case.
Take `Cc1ccc2nc(N/N=C/c3cccc(C)n3)cc(C)c2c1`: the TGI in assay [1] is 43.4 µM; in [2] it was 32.6 µM; in [3], 46.9 µM; in assay [4], 36 µM; in assay [5] it was 49.5 µM; in assay [6], 44.8 µM. Moreover, the TGI in [7] is 30.4 µM; in assay [8], 33.4 µM; in [9], 29.8 µM.
For the molecule `COc1ccc(-c2csc3c2-n2cccc2C3=O)cc1O`, the GI50 is 0.112 µM in assay [1]; 9.77 µM in assay [2]; 0.0925 µM in assay [4]; 0.132 µM in [10]; 0.0281 µM in [5]; 3.44 µM in assay [6]. Also, the GI50 is 17.6 µM in assay [7], 0.0332 µM in [8] and 0.387 µM in [9]. The TGI is over 91.5 µM in assay [1]; 26.3 µM in [2]; over 100 µM in assay [4]; 6.1 µM in assay [10]; over 100 µM in assay [5]; over 100 µM in assay [6]. Besides, the figures for the TGI in assay [7], in assay [8] and in [9] were 98.7 µM, over 47.4 µM and 49.2 µM, respectively.
As for `CO/N=C(/COc1c(-c2ccccc2)oc2ccccc2c1=O)c1ccc(F)cc1`, the GI50 in [1] was 57.4 µM; in assay [2], over 100 µM; in assay [3], 30.6 µM; in assay [4] it was 20.5 µM; in assay [5], 53 µM; in assay [7] it was 27.2 µM. The GI50 in [8] was 33.9 µM; in [9], 96.1 µM. The TGI in [1] was over 100 µM; in [2] it was over 100 µM; in [3], over 100 µM; in [4], 53.8 µM; in assay [5], over 100 µM; in assay [7] it was 95.7 µM. Moreover, the TGI in assay [8] and in assay [9] was over 100 µM each time.
For `COc1cc(OC)cc(-c2cncn2-c2ccc(-c3nc4cc(OC)cc(OC)c4s3)cc2)c1`, the GI50 in assay [4] was 9.01 µM; in assay [5], 14.5 µM; in assay [6], over 100 µM; in assay [7] it was 16.8 µM; in [8], 4.76 µM; in assay [9] it was 4.75 µM. Further, the TGI in assay [4], in assay [5], in assay [6], in assay [7], in assay [8] and in [9] was over 100 µM each time.
For the molecule `Cc1cn2c(=O)n(c1=O)Cc1ccccc1C2`, the GI50 in assay [1] was over 100 µM; in [2] it was 1.04 µM; in assay [3] it was over 100 µM; in assay [4], 5.84 µM; in assay [5] it was 46.6 µM; in assay [6] it was over 100 µM. For the same molecule, the GI50 in assay [7] is over 100 µM; in assay [8], over 100 µM; in [9], 63.1 µM. Also, the TGI in assay [1] was over 100 µM; in assay [2], 31.9 µM; in [3] it was over 100 µM; in assay [4], over 100 µM; in assay [5] it was over 100 µM; in [6] it was over 100 µM. For the same molecule, the TGI in assay [7], in [8] and in assay [9] was over 100 µM throughout.
With `Cc1cc(C)c2c(N)c3cccc(C)c3nc2n1`, the GI50 in [2] is 0.702 µM; in [3] it was 1.58 µM; in [4], 1.56 µM; in assay [10], 2.17 µM; in assay [5] it was 1.55 µM; in assay [6], 2.21 µM. Moreover, the GI50 in assay [7] was 1.83 µM; in [8], 2.47 µM. In addition, the TGI in assay [2] was 2.17 µM; in assay [3], 3.24 µM; in [4] it was 6.27 µM; in assay [10] it was 10 µM; in [5], 14.8 µM; in assay [6] it was 8.73 µM. Moreover, the values for the TGI in assay [7] and in assay [8] were 7.05 µM and 10.6 µM, respectively.
Take `CCOC(=O)C1=C(c2ccccc2)N(c2ccc(OC)cc2)[C@]2(C#N)C(O)=C(Cl)C(Cl)=C(O)[C@]12C#N`: the GI50 in assay [1] was 69.1 µM; in [2] it was 18.6 µM; in assay [3], 20.9 µM; in [4], 20.1 µM; in assay [10], 21.9 µM; in assay [5], 33 µM. The GI50 in assay [6] was 20.5 µM; in assay [7], 24.3 µM; in [8], 22.5 µM. Also, the TGI in assay [1] was over 100 µM; in assay [2] it was 33.5 µM; in [3], 41.3 µM; in assay [4] it was 44.3 µM; in assay [10] it was 56.9 µM; in assay [5], over 100 µM. Further, the TGI in assay [6] is 42.1 µM; in assay [7] it was 74.8 µM; in assay [8], 52.5 µM.
For the molecule `COc1cc2c3c(n(CCCNCCNCCCN)c(=O)c2cc1OC)-c1cc2c(cc1C3=O)OCO2`, the GI50 in [1] is 10.8 µM; in assay [2], 3.57 µM; in assay [3], 3 µM; in assay [4] it was 1.19 µM; in assay [5], 2.39 µM; in assay [6], 5.73 µM. The GI50 is 7.92 µM in assay [7], 0.0177 µM in [8] and 1.87 µM in assay [9]. Also, the TGI in [1] was over 100 µM; in assay [2], 17.9 µM; in [3], 12.5 µM; in assay [4], 3.59 µM; in assay [5], 6.45 µM; in [6], 31.2 µM. Further, the TGI amounted to 27 µM in assay [7], 0.422 µM in [8] and 8.18 µM in assay [9].
Turning to `COc1ccc2[nH]cc(-c3nc(-c4c[nH]c5ccncc45)cs3)c2c1`, the GI50 in [1] was 2.35 µM; in assay [3], 1.83 µM; in assay [4] it was 1.65 µM; in [5], 2.37 µM; in assay [6], 1.97 µM; in assay [7] it was 2.59 µM. The GI50 is 1.91 µM in assay [8] and 1.78 µM in assay [9]. Further, the TGI turned out to be 9.5 µM in assay [1]; 3.62 µM in assay [3]; 3.25 µM in assay [4]; 6.05 µM in assay [5]; 3.8 µM in assay [6]; 4.64 µM in assay [7]. In addition, the values for the TGI in [8] and in assay [9] were 3.67 µM and 3.35 µM, respectively.
`Cc1ccc(F)cc1NC(=O)c1cc(Cl)ccc1Nc1ccccc1`: the GI50 is over 100 µM in assay [1]; over 100 µM in assay [2]; 6.96 µM in [4]; 37.9 µM in [10]; 58.8 µM in assay [5]; over 100 µM in [6]. The GI50 in assay [7], in [8] and in assay [9] was over 100 µM throughout. In addition, the TGI in assay [1], in assay [2], in assay [4], in assay [10], in assay [5] and in [6] was over 100 µM in each case. For the same molecule, the TGI in assay [7], in [8] and in assay [9] was over 100 µM throughout.
For `CCCCCCCCCCCCCCCCn1cc[n+](Cc2ccccc2)c1C`, the GI50 in assay [1] is 1.15 µM; in assay [3], 0.425 µM; in [4], 0.0684 µM; in assay [10], 2.46 µM; in [6], 0.565 µM; in assay [7], 0.86 µM. Also, in [9], the GI50 is 0.577 µM and 0.232 µM. Further, the TGI in assay [1] was 2.57 µM; in assay [3], 1.91 µM; in assay [4], 0.989 µM; in assay [10] it was over 100 µM; in assay [6] it was 2.01 µM; in assay [7], 2.2 µM. In addition, the TGI in assay [9] is 2.01 µM and 1.21 µM.
Consider `Cc1c(O)c(=O)ccn1CCO`, for which the TGI in [1], in [2], in assay [3], in assay [10], in [5] and in [6] was over 100 µM each time. Moreover, the TGI in assay [7], in [8] and in [9] was over 100 µM throughout.
With `COc1cc2c3c(n(C)c(=O)c2cc1OC)-c1cc2c(cc1/C3=C/[C@H](N)CCCCN)OCO2`, the GI50 in assay [1] was 0.622 µM; in [2], 1.18 µM; in [3], 1.59 µM; in [4] it was 0.941 µM; in assay [5], 2.27 µM; in assay [6], 0.829 µM. Further, the values for the GI50 in assay [7] and in assay [9] were 3.95 µM and 1.28 µM, respectively. Further, the TGI was 24.5 µM in [1]; over 19.8 µM in assay [2]; 4.55 µM in assay [3]; 6.22 µM in assay [4]; over 100 µM in assay [10]; 23.4 µM in assay [5]. Besides, the figures for the TGI in [6], in [7] and in [9] were 20.1 µM, 21.5 µM and 6.33 µM, respectively.
As to `COc1ccc(-c2nc3sc4c(c3c(=O)[nH]2)CCCC4)c2ccccc12`, the GI50 was 0.42 µM in assay [1]; 0.474 µM and 0.0475 µM in [5]; 0.411 µM and 0.0467 µM in assay [6]; 3.53 µM in assay [7]; 0.369 µM in [8]. The TGI was 0.63 µM and 0.135 µM in [3]; over 100 µM in assay [4]; over 100 µM in assay [10]; over 100 µM in assay [5]; over 100 µM in [6]; 16.3 µM in [9].
Take `NC1=NC(c2ccc(F)cc2)C2=C(N1)c1ccc3ccccc3c1OCC2` (stereo not given): the GI50 is 18.7 µM in assay [1]; over 100 µM in assay [3]; 47.4 µM in assay [4]; 14.5 µM in [5]; 16.2 µM in [6]; 14.5 µM in assay [7]. In addition, the GI50 in [8] is 8.49 µM; in assay [9], 3.14 µM. The TGI in [1], in [3], in [4], in assay [5], in [6] and in [7] was over 100 µM in each case. Also, the results for the TGI in [8] and in assay [9] were over 100 µM and 30.9 µM, respectively.
As for `COC(=O)C1=Cc2c(cc(OC)c(OC)c2OC)[C@H](c2ccc(OC)c(OC)c2OC)C1C(=O)OC` (stereo not given in full), the TGI in assay [1], in assay [2], in assay [3], in assay [10], in assay [5] and in assay [6] was over 100 µM each time. Also, the TGI in [7], in assay [8] and in assay [9] was over 100 µM throughout.
As to `Nc1nc(SCCC/C=C/I)nc2c1ncn2C1OC(CO)C(O)C1O` (stereo not given), the TGI in assay [1], in assay [2], in assay [3], in assay [10], in [5] and in assay [6] was over 202 µM throughout. Further, the TGI in [7], in assay [8] and in assay [9] was over 202 µM in each case.
`CNC(=O)OCc1[nH]ccc2c(C)c3nc4ccc(OC)cc4c3cc12`: the TGI is over 100 µM in assay [1]; over 28.1 µM in assay [2]; over 100 µM in assay [3]; 3.89 µM in assay [10]; over 24.9 µM in assay [5]; over 25.1 µM in assay [6]. Also, the TGI in assay [7] was over 79.1 µM; in assay [8], over 59.5 µM; in [9] it was over 56.7 µM.
